From US5567693A, “Method for inhibiting angiogenesis, proliferation of endothelial or tumor cells and tumor growth” (American Cyanamid Company, priority 1994, dated 1996)
“And” between values parts separate entries of the source, which are not always exact repeats. Equal entries are not always repeated. Structures can show the parent of a compound that is named as a salt. Where two headings read alike, the source gives them in different places.

Tests used:
[1] = test system: HTB 161; test: Antiproliferative activity in human tumor cell lines: HTB 161 (ovarian); type: cell-based; settings: HTB 161 ovarian tumor, PROTOCOL 1 and PROTOCOL 2, 48 hours
Procedure: (§1) The assays are identified as follows:
(§2) PROTOCOL 1,2,and 3 are described in greater detail hereinbelow. In general, according to PROTOCOLS 1 and 2, the target ABAE and/or Human Tumor cells are exposed to the compounds of Formula I for 48 hours. PROTOCOL 3 exposes ABAE cells to the compounds for 4 days. A detailed description of the protocols is as follows:
(§3) The antiproliferative activity of the compounds of Formula I of the present invention is evaluated in a panel comprised of human tumor cell lines and an adult bovine aortic endothelial cell line (ABAE). The human tumor cell lines are from
(§4) Cultures are renewed after 20 passages with cells from a fresh stock of batch-frozen early passage cells. Cell lines are routinely checked for mycoplasma contamination (Genprobe). In a laminar flow hood, cells (1-5×10^4) are plated into 96-well microtiter plates in a volume of 0.1 ml/well with a bulk microtiter dispenser (Denley). […] Compounds are added using a Tomtec dispenser which simultaneously dispenses from one 96-well plate, containing the drug dilutions, to the plates containing the cells. After two days of continuous drug exposure, 50% cold trichloroacetic acid (TCA) is added to 10% final concentration to fix the cells, and after 60 minutes at 4° C., the TCA is aspirated and the plates are washed 5 times with deionized water using a microtiter plate washer. […] A 0.4% solution of the dye, sulforhodamine B, in […] is added to the plates, and the plates are washed 5 times with 1% glacial acetic acid using the automatic plate washed. The bound stain is solubilized with 0.1 ml of 10 mM Tris base. The optical densities are read from an automatic spectrophotometric plate reader (Dynatech) directly to a main frame computer (VAX 8600).
(§5) Positive controls, that include standard chemotherapeutic drugs (i.e., Adriamycin, Cisplatin, etc.), are included in every experiment.
(§6) Background optical density measurements (complete media-cells, and complete media+drug-cells) are automatically subtracted from the appropriate control and test wells. Mean values and standard errors are determined from duplicate wells. A measure is also made of the optical density at time when the drugs are added. The number of cells after treatment (P), as % of control, is calculated for every concentration of drug, as follows: [formula] wherein: T is optical density measurement for treated cells after 48 hours;
(§7) C is optical density measurement for untreated cells after 48 hours;
(§8) Co is optical density measurement for cells at the time of drug addition.
(§9) IC50 of growth inhibition is calculated from the sets of P values using the RS-1 data package (BBN Software).
(§10) The antiproliferative activity of the compounds of Formula I is evaluated in a panel comprised of human tumor cell lines and an adult bovine aortic cell line (ABAE) as listed in PROTOCOL 1. This assay is a modification of PROTOCOL 1. The modifications include:
(§11) 1) each concentration for each compound is tested in a single well;
(§12) 2) compounds are tested at 20, 4, 0.8, 0.16 microgram/ml and additionally in some experiments at 100 and 0.32 microgram/ml;
(§13) 3) samples are pipetted into a 96-well plate for each of the cell lines by a Beckman Biomek 1000 SL robot;
(§14) 4) after fixing with TCA each well is washed with 0.35 ml distilled water twice, not five times;
(§15) 5) after staining with sulforhodamine B each well is washed 3 times, not five times;
(§16) 6) the growth inhibition (I) as % of control, is calculated using the RS-1 data package (BBN Software), for every concentration of drug, as follows: [formula] wherein: T is optical density measurement for treated cells after 48 hours;
(§17) 7) IC50 of growth inhibition is determined graphically from dose response curves, as is known in the art.

[2] = test system: CACO2; test: Antiproliferative activity in human tumor cell lines: CACO2 (colon); type: cell-based; settings: CACO2 colon tumor, PROTOCOL 1 and PROTOCOL 2, 48 hours
Procedure: (§18) The antiproliferative activity of the compounds of Formula I in an Adult Bovine Aortic Endothelial (ABAE) cell line and in Human Tumor cell lines is evaluated in three similar assays that measure growth inhibition. The assays are identified as follows:
as §2, §3
(§19) All cell lines are maintained in log phase in RPMI 1640 media, supplemented with 5% fetal calf serum, penicillin/streptomycin and 2 mM L-glutamine. Cultures are renewed after 20 passages with cells from a fresh stock of batch-frozen early passage cells. Cell lines are routinely checked for mycoplasma contamination (Genprobe). In a laminar flow hood, cells (1-5×10^4) are plated into 96-well microtiter plates in a volume of 0.1 ml/well with a bulk microtiter dispenser (Denley). […] At this concentration, dimethylsulfoxide has no effect on cell growth. Compounds are added using a Tomtec dispenser which simultaneously dispenses from one 96-well plate, containing the drug dilutions, to the plates containing the cells. After two days of continuous drug exposure, 50% cold trichloroacetic acid (TCA) is added to 10% final concentration to fix the cells, and after 60 minutes at 4° C., the TCA is aspirated and the plates are washed 5 times with deionized water using a microtiter plate washer. The number of cells on the plate are quantitated using a protein dye-binding assay (Monks et al., 1991). A 0.4% solution of the dye, sulforhodamine B, in glacial acetic acid is added to the plates, and the plates are washed 5 times with 1% glacial acetic acid using the automatic plate washed. The bound stain is solubilized with 0.1 ml of 10 mM Tris base. The optical densities are read from an automatic spectrophotometric plate reader (Dynatech) directly to a main frame computer (VAX 8600).
as §5, §6, §7, §8, §9, §10, §11, §12, §13, §14
(§20) 5) after staining with sulforhodamine B each well is washed 3 times, not five times; […]

[3] = test system: Adult Bovine Aortic Endothelial (ABAE) cell line; test: Antiproliferative activity in ABAE cell line, PROTOCOL 2; type: cell-based; settings: PROTOCOL 2, 48 hours
Procedure: as §18, §2
Antiproliferative Activity in Human Tumor and Adult Bovine Aortic Endothelial Cell Lines (ABAE)
as §10, §11, §12, §13, §14, §15, §16, §7, §17
Table 1 presents the results depicting the antiproliferative activity of the compounds of Formula I against an Adult Bovine Aortic Endothelial cell line (ABAE), as evaluated by PROTOCOL 1 and 2. The results are presented in terms of IC50 and are as follows.

[4] = test system: A2780/DDP; test: Antiproliferative activity in human tumor cell lines: A2780/DDP (ovarian); type: cell-based; settings: PROTOCOL 1 and PROTOCOL 2, 48 hours
Procedure: as §1, §2, §3, §4, §5, §6, §7, §8, §9, §10, §11, §12, §13, §14, §15, §16, §17

[5] = test system: A2780S; test: Antiproliferative activity in human tumor cell lines: A2780S (ovarian); type: cell-based; settings: PROTOCOL 1 and PROTOCOL 2, 48 hours
Procedure: as §1, §2, §3, §4, §5, §6, §7, §8, §9, §10, §11, §12, §13, §14, §15, §16, §17

[6] = test system: MIP; test: Antiproliferative activity in human tumor cell lines: MIP (colon); type: cell-based; settings: PROTOCOL 1 and PROTOCOL 2, 48 hours
Procedure: as §18, §2, §3, §19, §5, §6, §7, §8, §9, §10, §11, §12, §13, §14, §20

[7] = test system: SW620; test: Antiproliferative activity in human tumor cell lines: SW620 (colon); type: cell-based; settings: SW-620, SW620 colon tumor, PROTOCOL 1 and PROTOCOL 2, 48 hours, read-out: IC50
Procedure: as §18, §2, §3, §19, §5, §6, §7, §8, §9, §10, §11, §12, §13, §14, §20

[8] = test system: angiogenesis; settings: Brem et al, cited from earlier work; for inhibition of angiogenesis: WO92/12717
[9] = test system: tumor growth; settings: in conjunction with cancer chemotherapy or radiation therapy; Teicher et al; cited from earlier work
[10] = test system: Adult Bovine Aortic Endothelial (ABAE) cell line; test: Antiproliferative activity in ABAE cell line, PROTOCOL 3 (4 day assay); type: cell-based; settings: 4 day assay (PROTOCOL 3)
Procedure: as §18, §2
Antiproliferative Activity in Adult Bovine Aortic Endothelial (ABAE) Cell Line
ABAE cells are grown in DMEMmedia (Mediatech, Washington, D.C.) supplemented with 10% calf serum (Hyclone). ABAE cells are plated in 24-well dishes at 8,000 cells/well, followed by the addition of increasing concentrations of 7-(hydrogen or di(C1 -C4)alkylamino)-8-halogen-9-(substituted)-6-demethyl-6-deoxytetracycline. After four days, the cells are detached and counted. […] The growth inhibition (I) as % of control is calculated as follows: [formula] wherein: Nc is the number of cells in untreated wells;
Nt is the number of cells in treated wells;
No is the number of plated cells.
IC50 of growth inhibition is determined from the sets of I values plotted by Kaleidograph software (Abelbeck Software).
In addition FIG. 1, presents the dose response curve for the compound of Example 10 for the above ABAE cell line obtained by using PROTOCOL 3.

[11] = test system: Human Tumor cell lines; test: Antiproliferative activity in the panel of human tumor cell lines; type: cell-based; settings: Homo sapiens; average over the 6 tumor cell lines
Procedure: as §18, §2, §3, §19, §5, §6, §7, §8, §9, §10, §11, §12, §13, §14, §20

[12] = Homo sapiens, Caco-2, read-out: IC50

| Compound | IC50 [1] [mg/L] | IC50 [2, 12] [mg/L] | IC50 ([3]; Bos taurus, read-out: IC50) [mg/L] | IC50 [4] [mg/L] | IC50 [5] [mg/L] | IC50 [6] [mg/L] | IC50 [7] [mg/L] | inhibition of angiogenesis [8] | IC50 [11] [mg/L] | further results |
| --- | --- | --- | --- | --- | --- | --- | --- | --- | --- | --- |
| CC(C(=O)Nc1c(Cl)cc2c(c1O)C(=O)C1=C(O)[C@]3(O)C(=O)C(C(N)=O)=C(O)[C@@H](N(C)C)C3CC1C2)N1CCCCC1 (stereo partly drawn) [Example 14, 7S-(7α, 10aα)]-N-[9-(Aminocarbonyl)-3-chloro-7-(dimethylamino)-5,5a,6,6a,7,10,10a,12-octahydro-1,8,10a,11-tetrahydroxy-10,12-dioxo-2-naphthacenyl]-α-methyl-1-piperidineacetamide dihydrochloride] | < 0.16 | 0.7 | < 0.8 | < 0.16 | < 0.16 | < 0.16 | < 0.16 | – | – | – |
| CN(C)c1ccc(O)c2c1C[C@H]1C[C@H]3[C@H](N(C)C)C(O)=C(C(N)=O)C(=O)[C@@]3(O)C(O)=C1C2=O [Minocycline] | – | – | – | – | – | – | – | useful as inhibitors of angiogenesis | – | inhibition of angiogenesis compared with combination therapy of heparin and cortisone ([8]; Cancer Research 51, 672-675): inhibits angiogenesis to an extent comparable to that of the combination therapy of heparin and cortisone; number of metastases [9]: the number of metastases is reduced; tumor growth [9]: tumor growth is decreased; activity upon incubation with cells [10]: loosing its activity upon incubation with cells |
| CN(C)[C@@H]1C(O)=C(C(N)=O)C(=O)[C@@]2(O)C(O)=C3C(=O)c4c(O)ccc(Cl)c4[C@@H](O)[C@H]3C[C@@H]12 [Demeclocycline] | – | – | – | – | – | – | – | useful as inhibitors of angiogenesis | – | – |
| CN(C)[C@@H]1C(O)=C(C(=O)NCNCCCC[C@H](N)C(=O)O)C(=O)[C@@]2(O)C(O)=C3C(=O)c4c(O)cccc4[C@@](C)(O)[C@H]3C[C@@H]12 [Lymecycline] | – | – | – | – | – | – | – | useful as inhibitors of angiogenesis | – | – |
| CC(C)NCC(=O)Nc1c(Cl)cc2c(c1O)C(=O)C1=C(O)[C@]3(O)C(=O)C(C(N)=O)=C(O)[C@@H](N(C)C)C3CC1C2 (stereo partly drawn) [Example 15, [4S-(4α,12aα)]-8-Chloro-4-(dimethylamino)-1,4,4a,5,5a,6,11,12a,-octahydro-3,10,12,12a-tetrahydroxy-1,11-dioxo-9-[[[(1-methylethyl)amino]acetyl]amino]-2-naphthacenecarboxamide dihydrochloride] | – | – | < 1 | – | – | – | – | – | – | – |
| CC(C(=O)Nc1c(Cl)cc2c(c1O)C(=O)C1=C(O)[C@]3(O)C(=O)C(C(N)=O)=C(O)[C@@H](N(C)C)C3CC1C2)N1CCCC1 (stereo partly drawn) [Example 13, 7S-(7α,10aα)]-N-[9-(Aminocarbonyl)-3-chloro-7-(dimethylamino)-5,5a,6,6a,7,10,10a,12-octahydro-1,8,10a,11-tetrahydroxy-10,12-dioxo-2-naphthacenyl]-α-methyl-1-pyrrolidineacetamide dihydrochloride] | 1 | 3 | 3 | 1 | 1 | – | 1 | – | 1.3 | – |
| CCC(C(=O)Nc1c(Cl)cc2c(c1O)C(=O)C1=C(O)[C@]3(O)C(=O)C(C(N)=O)=C(O)[C@@H](N(C)C)C3CC1C2)N1CCCC1 (stereo partly shown) [Example 19, dihydrochloride] | 2 | 4 | 4 | 1 | 1 | 3 | 3 | – | 2.3 | – |
| [4S-(4α,12aα)]-8 -Chloro-4-(dimethylamino)-9-[[(2-(dimethylamino) -1-oxopropyl]amino]-1,4,4a,5,5a,6,11,12a-octahydro-3,10,12,12a-tetrahydroxy-1,11-dioxo-9-[[[(1-methylethyl)amino]acetyl]amino]-2-naphthacenecarboxamide dihydrochloride [Example 16] | – | – | – | – | – | – | – | – | – | IC50 ([2]; dihydrochloride): 4.0 mg/L and 8.0 mg/L; IC50 [3]: 3 mg/L |
| CCC(C(=O)Nc1c(Cl)cc2c(c1O)C(=O)C1=C(O)[C@]3(O)C(=O)C(C(N)=O)=C(O)[C@@H](N(C)C)C3CC1C2)N(C)C (stereo partly shown) [Example 18, dihydrochloride] | 3 | 11 | 16 | 3 | – | 4 | 3 | – | 4.8 | – |
| CN(C)[C@@H]1C(O)=C(C(N)=O)C(=O)[C@@]2(O)C(O)=C3C(=O)c4c(O)ccc(Cl)c4[C@@](C)(O)[C@H]3C[C@@H]12 [Chlortetracycline] | – | – | – | – | – | – | – | useful as inhibitors of angiogenesis | – | – |
